# The supplement of paper PMC10307832
# Compound: CCCS(=O)(=O)Nc1ccc(F)c(C(=O)c2c[nH]c3ncc(-c4ccc(Cl)cc4)cc23)c1F [Vemurafenib] + C[C@@H](Oc1cc(-c2cnn(C3CCNCC3)c2)cnc1N)c1c(Cl)ccc(F)c1Cl [Crizotinib] (partner 1 µM)
# Assay: relative viability (nuclei count vs DMSO), 5 days (fraction); higher = more cells survive
# Conditions: first compound 0.03162 µM
# Procedure, shortened: (§1)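 After 5 days of treatment, lung cancer cells in 1536-well plates were fixed and stained in a single step (final 0.05% Triton X-100, 1% formaldehyde, 1 ug/ml Hoechst) and their nuclei counted on 4× images. Treatment had been applied by pin tool the day after seeding as one drug alone or as a fixed anchor-drug dose with five library-drug doses (not always all listed) in √10 steps. Relative viability is the nuclei count of treated wells divided by that of vehicle wells, and values are medians of duplicate plates.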
row,Cell Line,relative viability
1,NCI-H1666,1.02
2,RERF-LC-KJ,0.838
3,NCI-H650,0.705
4,NCI-H322M,0.934
5,NCI-H596,0.97
6,201T,0.997
7,SK-MES-1,0.934
8,NCI-H441,0.705

# Same assay, conditions: first compound 0.1 µM
row,Cell Line,relative viability
1,RERF-LC-KJ,0.834
2,NCI-H650,0.72
3,NCI-H596,1.01
4,201T,0.993
5,SK-MES-1,0.978
6,NCI-H441,0.684

# Same assay, conditions: first compound 0.3162 µM
row,Cell Line,relative viability
1,NCI-H1666,1.24
2,RERF-LC-KJ,0.832
3,NCI-H650,0.418
4,NCI-H322M,1.23
5,NCI-H596,0.992
6,201T,1.09
7,SK-MES-1,0.903
8,NCI-H441,0.743

# Same assay, conditions: first compound 1 µM
row,Cell Line,relative viability
1,NCI-H1666,1.05
2,RERF-LC-KJ,0.922
3,NCI-H650,0.581
4,NCI-H322M,0.716
5,NCI-H596,1.09
6,201T,1.02
7,SK-MES-1,0.901
8,NCI-H441,0.616

# Compound: Cc1nc(NC(=O)N2CCC[C@H]2C(N)=O)sc1-c1ccnc(C(C)(C)C(F)(F)F)c1 [Alpelisib] + Cc1cc(Nc2cc(N3CCN(C)CC3)nc(Sc3ccc(NC(=O)C4CC4)cc3)n2)n[nH]1 [Tozasertib] (partner 0.1 µM)
# Assay: as above
# Conditions: first compound 0.04 µM
# Procedure, shortened: as §1
row,Cell Line,relative viability
1,NCI-H1666,0.668
2,RERF-LC-KJ,0.466
3,NCI-H650,0.705
4,NCI-H322M,0.496
5,NCI-H596,0.859
6,201T,0.934
7,SK-MES-1,0.937
8,NCI-H441,0.629

# Same assay, conditions: first compound 0.1265 µM
row,Cell Line,relative viability
1,NCI-H1666,0.63
2,RERF-LC-KJ,0.455
3,NCI-H650,0.758
4,NCI-H322M,0.435
5,NCI-H596,0.893
6,201T,0.918
7,SK-MES-1,0.901
8,NCI-H441,0.537

# Same assay, conditions: first compound 0.4 µM
row,Cell Line,relative viability
1,NCI-H1666,0.636
2,RERF-LC-KJ,0.572
3,NCI-H650,0.798
4,NCI-H322M,0.515
5,NCI-H596,0.86
6,201T,0.917
7,SK-MES-1,1.03
8,NCI-H441,0.693

# Same assay, conditions: first compound 1.265 µM
row,Cell Line,relative viability
1,NCI-H1666,0.519
2,RERF-LC-KJ,0.363
3,NCI-H650,0.54
4,NCI-H322M,0.383
5,NCI-H596,0.56
6,201T,0.838
7,SK-MES-1,0.745
8,NCI-H441,0.418

# Same assay, conditions: first compound 4 µM
row,Cell Line,relative viability
1,NCI-H1666,0.528
2,RERF-LC-KJ,0.349
3,NCI-H650,0.573
4,NCI-H322M,0.284
5,NCI-H596,0.374
6,201T,0.8
7,SK-MES-1,0.89
8,NCI-H441,0.366

# Compound: COc1cccc2cc(-c3nc([C@H]4CC[C@H](C(=O)O)CC4)n4ncnc(N)c34)[nH]c12 [OSI-027] + Cc1nc(Nc2ncc(C(=O)Nc3c(C)cccc3Cl)s2)cc(N2CCN(CCO)CC2)n1 [Dasatinib] (partner 0.075 µM)
# Assay: as above
# Conditions: first compound 0.01 µM
# Procedure, shortened: as §1
row,Cell Line,relative viability
1,NCI-H1666,0.825
2,RERF-LC-KJ,0.835
3,NCI-H650,0.405
4,NCI-H322M,0.252
5,NCI-H596,0.588
6,201T,0.594
7,SK-MES-1,0.293
8,NCI-H441,0.74

# Same assay, conditions: first compound 0.03162 µM
row,Cell Line,relative viability
1,NCI-H1666,0.778
2,RERF-LC-KJ,0.776
3,NCI-H650,0.464
4,NCI-H322M,0.236
5,NCI-H596,0.55
6,201T,0.567
7,SK-MES-1,0.407
8,NCI-H441,0.577

# Same assay, conditions: first compound 0.1 µM
row,Cell Line,relative viability
1,NCI-H1666,0.732
2,RERF-LC-KJ,0.748
3,NCI-H650,0.336
4,NCI-H322M,0.224
5,NCI-H596,0.606
6,201T,0.588
7,SK-MES-1,0.295
8,NCI-H441,0.706

# Same assay, conditions: first compound 0.3162 µM
row,Cell Line,relative viability
1,NCI-H1666,0.733
2,RERF-LC-KJ,0.557
3,NCI-H650,0.347
4,NCI-H322M,0.233
5,NCI-H596,0.562
6,201T,0.504
7,SK-MES-1,0.25
8,NCI-H441,0.505

# Same assay, conditions: first compound 1 µM
row,Cell Line,relative viability
1,NCI-H1666,0.463
2,RERF-LC-KJ,0.349
3,NCI-H650,0.311
4,NCI-H322M,0.248
5,NCI-H596,0.564
6,201T,0.398
7,SK-MES-1,0.247
8,NCI-H441,0.526

# Compound: Cc1nc(NC(=O)N2CCC[C@H]2C(N)=O)sc1-c1ccnc(C(C)(C)C(F)(F)F)c1 [Alpelisib] + CCNC(=O)c1noc(-c2cc(C(C)C)c(O)cc2O)c1-c1ccc(CN2CCOCC2)cc1 [Luminespib] (partner 0.01 µM)
# Assay: as above
# Conditions: first compound 0.04 µM
# Procedure, shortened: as §1
row,Cell Line,relative viability
1,NCI-H1666,0.973
2,RERF-LC-KJ,1.32
3,NCI-H650,0.752
4,NCI-H322M,0.795
5,NCI-H596,0.832
6,201T,1.08
7,SK-MES-1,0.675
8,NCI-H441,0.395

# Same assay, conditions: first compound 0.1265 µM
row,Cell Line,relative viability
1,NCI-H1666,1.03
2,RERF-LC-KJ,1.16
3,NCI-H650,0.744
4,NCI-H322M,0.737
5,NCI-H596,0.884
6,201T,1.02
7,SK-MES-1,0.561
8,NCI-H441,0.324

# Same assay, conditions: first compound 0.4 µM
row,Cell Line,relative viability
1,NCI-H1666,1.12
2,RERF-LC-KJ,1.36
3,NCI-H650,0.985
4,NCI-H322M,0.789
5,NCI-H596,0.87
6,201T,1.02
7,SK-MES-1,0.733
8,NCI-H441,0.333

# Same assay, conditions: first compound 1.265 µM
row,Cell Line,relative viability
1,NCI-H1666,0.921
2,RERF-LC-KJ,0.917
3,NCI-H650,0.559
4,NCI-H322M,0.45
5,NCI-H596,0.599
6,201T,0.961
7,SK-MES-1,0.527
8,NCI-H441,0.272

# Same assay, conditions: first compound 4 µM
row,Cell Line,relative viability
1,NCI-H1666,0.965
2,RERF-LC-KJ,1.03
3,NCI-H650,0.664
4,NCI-H322M,0.39
5,NCI-H596,0.424
6,201T,0.956
7,SK-MES-1,0.464
8,NCI-H441,0.312
